Measurements reported in patent US12331040B2 (Karyopharm Therapeutics Inc., priority 2013, dated 2025).

Assays:
Experiment in all cases: MTT cell proliferation assay
Type in all cases: cell-based
NCI-H2030 cells = conditions: Homo sapiens, 72-hour MTT
Protocol: (§1) The MTT cell proliferation assay was used to study the cytotoxic properties of the compounds. The assay was performed according to the method described by Roche Molecular Biochemicals, with minor modifications. The assay is based on the cleavage of the tetrazolium salt, MTT, in the presence of an electron-coupling reagent. The water-insoluble formazan salt produced must be solubilized in an additional step. Cells grown in a 96-well tissue culture plate were incubated with the MTT solution for approximately 4 hours. After this incubation period, a water-insoluble formazan dye formed. After solubilization, the formazan dye was quantitated using a scanning multi-well spectrophotometer (ELISA reader). […] The cells were seeded at 5,000-10,000 cells in each well of 96-well plate in 100 μL of fresh culture medium and were allowed to attach overnight. The stock solutions of the compounds were diluted in 100 μL cell culture medium to obtain eight concentrations of each test compound, ranging from 1 nM to 30 μM. […] All optical densities were measured at 490 nm using a Vmax Kinetic Microplate Reader (Molecular Devices). In most cases, the assay was performed in duplicate and the results were presented as a mean percent inhibition to the negative control±SE. The following formula was used to calculate the percent of inhibition: Inhibition (%)=(1−(ODo/OD))×100.
(§2) Compounds 504, 510, 525 and 585 were further tested against selected solid and hematological cancer cell lines and selected normal cell lines in a 72-hour MTT cell proliferation assay.

HCC-2935 cells = conditions: Homo sapiens, HCC2935, 72-hour MTT
Protocol: as §1, §2

HPAF-II cells = conditions: Homo sapiens, 72-hour MTT
Protocol: as §1, §2

WI-38 cells = conditions: Homo sapiens, 72-hour MTT
Protocol: as §1, §2

BL-2 cells = conditions: BL2, 72-hour MTT
Protocol: as §1, §2

SK-CO-1 cells = conditions: Homo sapiens, 72-hour MTT
Protocol: as §1, §2

SNU-398 cells = conditions: Homo sapiens, 72-hour MTT
Protocol: as §1, §2

HCC-1143 cells = conditions: Homo sapiens, HCC1143, 72-hour MTT
Protocol: as §1, §2

NCI-H226 cells = conditions: Homo sapiens, 72-hour MTT
Protocol: as §1, §2

MO7e cells = conditions: 72-hour MTT
Protocol: as §1, §2

AU-565 cells = conditions: Homo sapiens, AU565, 72-hour MTT
Protocol: as §1, §2

DoHH-2 cells = conditions: Homo sapiens, 72-hour MTT
Protocol: as §1, §2

SW-480 cells = conditions: Homo sapiens, SW480, 72-hour MTT
Protocol: as §1, §2

C6 cells = conditions: Rattus norvegicus, 72-hour MTT
Protocol: as §1, §2

SHP-77 cells = conditions: Homo sapiens, SHP77, 72-hour MTT
Protocol: as §1, §2

Farage cells = conditions: 72-hour MTT
Protocol: as §1, §2

HH cells = conditions: Homo sapiens, 72-hour MTT
Protocol: as §1, §2

NCI-H2170 cells = conditions: Homo sapiens, 72-hour MTT
Protocol: as §1, §2

NCI-H1993 cells = conditions: Homo sapiens, 72-hour MTT
Protocol: as §1, §2

HeLa cells = conditions: Homo sapiens, 72-hour MTT
Protocol: as §1, §2

OCIAML5 cells = conditions: Homo sapiens, OCI-AML-5, 72-hour MTT
Protocol: as §1, §2

HCC-202 cells = conditions: HCC202, 72-hour MTT
Protocol: as §1, §2

RL cells = conditions: Homo sapiens, 72-hour MTT
Protocol: as §1, §2

HPAC cells = conditions: Homo sapiens, 72-hour MTT
Protocol: as §1, §2

AML-193 cells = conditions: 72-hour MTT
Protocol: as §1, §2

PBMC = conditions: 72-hour MTT
Protocol: as §1, §2

L3.6pl cells = conditions: Homo sapiens, 72-hour MTT
Protocol: as §1, §2

MINO cells = conditions: Homo sapiens, 72-hour MTT
Protocol: as §1, §2

SW-48 cells = conditions: Homo sapiens, SW48, 72-hour MTT
Protocol: as §1, §2

PL-45 cells = conditions: PL45, 72-hour MTT
Protocol: as §1, §2

DB cells = conditions: Homo sapiens, 72-hour MTT
Protocol: as §1, §2

HEL.92.1.7 cells = conditions: Homo sapiens, 72-hour MTT
Protocol: as §1, §2

TFK-1 cells = conditions: 72-hour MTT
Protocol: as §1, §2

NCI-H929 cells = conditions: Homo sapiens, 72-hour MTT
Protocol: as §1, §2

SW-837 cells = conditions: Homo sapiens, SW837, 72-hour MTT
Protocol: as §1, §2

PATU-8988S cells = conditions: PaTuÂ 8988s, 72-hour MTT
Protocol: as §1, §2

NCI-H69 cells = conditions: Homo sapiens, 72-hour MTT
Protocol: as §1, §2

Pfieffer cells = conditions: 72-hour MTT
Protocol: as §1, §2

HS-Sultan cells = conditions: 72-hour MTT
Protocol: as §1, §2

NCI-H187 cells = conditions: Homo sapiens, 72-hour MTT
Protocol: as §1, §2

In the case of Nc1ccc(/C=C/C(=O)NCc2cc3cc(-c4ccc(C(=O)N5CCC(F)(F)CC5)cn4)cc(C(F)(F)F)c3o2)cn1 [Compound 585, (E)-3-(6-aminopyridin-3-yl)-N-((5-(5-(4,4-difluoropiperidine-1-carbonyl)pyridin-2-yl)-7-(trifluoromethyl)benzofuran-2-yl)methyl)acrylamide], the IC50 (NCI-H2030 cells) is reported as 300 nM, the IC50 (HCC-2935 cells) is reported as 4390 nM and the IC50 (HPAF-II cells) is reported as 550 nM. The IC50 (WI-38 cells) was 220 nM, the IC50 (BL-2 cells) was 180 nM and the IC50 (SK-CO-1 cells) was 1190 nM. For the same molecule, the IC50 (SNU-398 cells) was 4420 nM, the IC50 (HCC-1143 cells) was 210 nM and the IC50 (NCI-H226 cells) was 6780 nM. The IC50 (MO7e cells) was 20 nM, the IC50 (AU-565 cells) was 140 nM and the IC50 (DoHH-2 cells) was 90 nM. It also gave an IC50 (SW-480 cells) of 480 nM, an IC50 (C6 cells) greater than 10000 nM and an IC50 (SHP-77 cells) of 210 nM. The IC50 (Farage cells) was 70 nM, the IC50 (HH cells) was 90 nM and the IC50 (NCI-H2170 cells) was 1260 nM. For the same molecule, the IC50 (NCI-H1993 cells) was greater than 10000 nM, the IC50 (HeLa cells) was 60 nM and the IC50 (OCIAML5 cells) was 50 nM. It also gave an IC50 (HCC-202 cells) of 1690 nM, an IC50 (RL cells) of 210 nM and an IC50 (HPAC cells) of 380 nM. For the same molecule, the IC50 (AML-193 cells) was 30 nM, the IC50 (PBMC) was 2200 nM and the IC50 (L3.6pl cells) was 70 nM. It also gave an IC50 (MINO cells) of 110 nM, an IC50 (SW-48 cells) of 170 nM and an IC50 (PL-45 cells) of 1010 nM. The IC50 (DB cells) was 290 nM, the IC50 (HEL.92.1.7 cells) was 120 nM and the IC50 (TFK-1 cells) was 1030 nM. For the same molecule, the IC50 (NCI-H929 cells) was 930 nM, the IC50 (SW-837 cells) was 600 nM and the IC50 (PATU-8988S cells) was 470 nM. It also gave an IC50 (NCI-H69 cells) of 80 nM, an IC50 (Pfieffer cells) of 80 nM and an IC50 (HS-Sultan cells) of 200 nM. The IC50 (NCI-H187 cells) was 70 nM.
